Values of other authors in patent publication US5279834A, “Pharmaceutical or cosmetic composition containing hydroquinone and kojic acid” (priority 1987, dated 1994).

Conditions: background statement; The Journal of Investigative Dermatology 73, 354-358 (1979)

SMILES: CC1=C(/C=C/C(C)=C/C=C/C(C)=C/C(=O)O)C(C)(C)CCC1 [vitamin A acid]
- irritant character: well known for its irritant character
